# Source: ChEMBL document CHEMBL5143760, “Inhibitors of Transforming Growth Factor Beta Receptor 1 (TGFβr1) May Enhance the Efficacy of Several Monoclonal Antibodies as Cancer Therapy” (2022)
# Activity calls are given as the source filed them. No cut-off for these calls is given here.
# Legend:
# [1] = test system: MC-38; test: Antitumor activity against mouse MC38 cells xenografted in C57BL/6 mouse assessed as inhibition of tumor growth at 30 mg/kg, po twice daily co-administered with anti-PD1-antibody at 5 mg/kg, ip twice weekly for 2 weeks; assay type: functional, organism-based
# [2] = test system: MC-38; test: Antitumor activity against mouse MC38 cells xenografted in C57BL/6 mouse assessed as increase in animal survival at 30 mg/kg, po twice daily co-administered with anti-PD1-antibody at 5 mg/kg, ip twice weekly for 2 weeks; assay type: functional, organism-based
# [3] = test system: 4T1; test: Antitumor activity against mouse 4T1 cells xenografted in Balb/cj mouse assessed as inhibition of tumor growth at 30 mg/kg, po twice daily for 21 days relative to control; assay type: functional; settings: 4T1, 504 h, time 21 day, read-out: TGI
# [4] = test system: 4T1; test: Antitumor activity against mouse 4T1 cells xenografted in Balb/cj mouse assessed as inhibition of tumor growth at 30 mg/kg, po twice daily for 21 days in presence of 4-1BB monoclonal antibody relative to control; assay type: functional; settings: 4T1, 504 h, time 21 day, read-out: TGI
# [5] = test system: 4T1; test: Antitumor activity against mouse 4T1 cells xenografted in Balb/cj mouse assessed as inhibition of tumor growth at 30 mg/kg, po twice daily for 21 days in presence of OXO40 monoclonal antibody relative to control; assay type: functional; settings: 4T1, 504 h, time 21 day, read-out: TGI
# [6] = test system: CT26; test: Antitumor activity against mouse CT26 cells xenografted in Balb/c mouse assessed as time of events at 30 mg/kg, po twice daily for 28 days; assay type: functional; settings: time 28 day
# [7] = test system: CT26; test: Antitumor activity against mouse CT26 cells xenografted in Balb/c mouse assessed as tumor growth delay at 30 mg/kg, po twice daily for 28 days; assay type: functional; settings: time 28 day
# [8] = test system: CT26; test: Antitumor activity against mouse CT26 cells xenografted in Balb/c mouse assessed as time of events at 30 mg/kg, po twice daily for 28 days in presence of ant-CTLA4 antibody; assay type: functional; settings: time 28 day
# [9] = test system: CT26; test: Antitumor activity against mouse CT26 cells xenografted in Balb/c mouse assessed as tumor growth delay at 30 mg/kg, po twice daily for 28 days in presence of ant-CTLA4 antibody; assay type: functional; settings: time 28 day
smiles,measurement,setting,value
CC(C)c1cnc(-c2cc(Cl)ccc2F)cc1Nc1ccncc1C(=O)NC(CO)CO [PF-06952229],inhibition,[1],Active
same,Activity,[2],Active
same,inhibition in vivo at 30 mg/kg,[3],18%
same,inhibition in vivo at 30 mg/kg,[4],41%
same,inhibition in vivo at 30 mg/kg,[5],29.5%
same,Time,[6],33.8 days
same,Activity,[7],18%
same,Time,[8],59 days
same,Activity,[9],106%
